Experimental data taken from PubChem BioAssay (NCI).
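96-well plates; 48 h exposure; 5 concentrations. Endpoints by linear interpolation between flanking doses. Not reached: highest tested concentration assigned. The concentration for 50% growth inhibition is given as GI50. TGI: concentration producing complete growth inhibition.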

What was measured:
Experiment in all cases: NCI tumour cell line growth inhibition, 48 h
HOP-92 NSCLC = test system: HOP-92 NSCLC
LOX IMVI melanoma = test system: LOX IMVI melanoma
HT29 colon = test system: HT29 colon
MOLT-4 leukemia = test system: MOLT-4 leukemia
HL-60(TB) leukemia = test system: HL-60(TB) leukemia
HS 578T breast = test system: HS 578T breast
SW-620 colon = test system: SW-620 colon
UACC-62 melanoma = test system: UACC-62 melanoma
SK-OV-3 ovarian = test system: SK-OV-3 ovarian
KM12 colon = test system: KM12 colon
MDA-MB-435 = test system: MDA-MB-435
MCF7 breast = test system: MCF7 breast
NCI/ADR-RES ovarian = test system: NCI/ADR-RES ovarian
HOP-62 NSCLC = test system: HOP-62 NSCLC
OVCAR-4 ovarian = test system: OVCAR-4 ovarian
ACHN renal = test system: ACHN renal
BT-549 breast = test system: BT-549 breast
SR leukemia = test system: SR leukemia
RXF 393 renal = test system: RXF 393 renal
SN12C renal = test system: SN12C renal
TK-10 renal = test system: TK-10 renal
SK-MEL-5 melanoma = test system: SK-MEL-5 melanoma
COLO 205 colon = test system: COLO 205 colon
MDA-MB-231 breast = test system: MDA-MB-231 breast
DU-145 prostate = test system: DU-145 prostate
SNB-75 CNS = test system: SNB-75 CNS
SNB-19 CNS = test system: SNB-19 CNS
NCI-H23 lung = test system: NCI-H23 lung
A498 renal = test system: A498 renal
MALME-3M melanoma = test system: MALME-3M melanoma
SF-295 CNS = test system: SF-295 CNS
EKVX NSCLC = test system: EKVX NSCLC
NCI-H226 lung = test system: NCI-H226 lung
HCT-116 colon = test system: HCT-116 colon
CAKI-1 renal = test system: CAKI-1 renal
HCC-2998 colon = test system: HCC-2998 colon
HCT-15 colon = test system: HCT-15 colon
K-562 leukemia = test system: K-562 leukemia
OVCAR-8 ovarian = test system: OVCAR-8 ovarian
A549 NSCLC = test system: A549 NSCLC
SF-539 CNS = test system: SF-539 CNS
PC-3 prostate = test system: PC-3 prostate
NCI-H460 lung = test system: NCI-H460 lung
M14 melanoma = test system: M14 melanoma
SK-MEL-2 melanoma = test system: SK-MEL-2 melanoma
SK-MEL-28 melanoma = test system: SK-MEL-28 melanoma
CCRF-CEM leukemia = test system: CCRF-CEM leukemia
T-47D breast = test system: T-47D breast
UO-31 renal = test system: UO-31 renal
786-0 renal = test system: 786-0 renal
IGROV1 ovarian = test system: IGROV1 ovarian
UACC-257 melanoma = test system: UACC-257 melanoma
OVCAR-5 ovarian = test system: OVCAR-5 ovarian
RPMI-8226 leukemia = test system: RPMI-8226 leukemia
U251 CNS = test system: U251 CNS
SF-268 CNS = test system: SF-268 CNS
NCI-H522 lung = test system: NCI-H522 lung
OVCAR-3 ovarian = test system: OVCAR-3 ovarian

O=C(OCc1ccc2c(Br)cc(Br)c(O)c2n1)c1cc2ccccc2[nH]1 was tested, and the GI50 (HOP-92 NSCLC) was 548 nM, the TGI (HOP-92 NSCLC) was 2150 nM and the GI50 (LOX IMVI melanoma) was 185 nM. The TGI (LOX IMVI melanoma) was 405 nM, the GI50 (HT29 colon) was 408 nM and the TGI (HT29 colon) was 1590 nM. For the same molecule, the GI50 (MOLT-4 leukemia) was 488 nM, the TGI (MOLT-4 leukemia) was 2490 nM and the GI50 (HL-60(TB) leukemia) was 615 nM. For the same molecule, the TGI (HL-60(TB) leukemia) was 2940 nM, the GI50 (HS 578T breast) was 1240 nM and the TGI (HS 578T breast) was 3870 nM. The GI50 (SW-620 colon) was 333 nM, the TGI (SW-620 colon) was 1130 nM and the GI50 (UACC-62 melanoma) was 1160 nM. The TGI (UACC-62 melanoma) was 2470 nM, the GI50 (SK-OV-3 ovarian) was 6030 nM and the TGI (SK-OV-3 ovarian) was 18600 nM. The GI50 (KM12 colon) was 1520 nM, the TGI (KM12 colon) was 3090 nM and the GI50 (MDA-MB-435) was 709 nM. The TGI (MDA-MB-435) was 2080 nM, the GI50 (MCF7 breast) was 434 nM and the TGI (MCF7 breast) was 2070 nM. For the same molecule, the GI50 (NCI/ADR-RES ovarian) was 1630 nM, the TGI (NCI/ADR-RES ovarian) was 7590 nM and the GI50 (HOP-62 NSCLC) was 1340 nM. For the same molecule, the TGI (HOP-62 NSCLC) was 3470 nM, the GI50 (OVCAR-4 ovarian) was 959 nM and the TGI (OVCAR-4 ovarian) was 2310 nM. For the same molecule, the GI50 (ACHN renal) was 352 nM, the TGI (ACHN renal) was 1270 nM and the GI50 (BT-549 breast) was 706 nM. The TGI (BT-549 breast) was 2060 nM, the GI50 (SR leukemia) was 430 nM and the TGI (SR leukemia) was 4220 nM. For the same molecule, the GI50 (RXF 393 renal) was 338 nM, the TGI (RXF 393 renal) was 1260 nM and the GI50 (SN12C renal) was 839 nM. The TGI (SN12C renal) was 2180 nM, the GI50 (TK-10 renal) was 1180 nM and the TGI (TK-10 renal) was 2430 nM. The GI50 (SK-MEL-5 melanoma) was 1610 nM, the TGI (SK-MEL-5 melanoma) was 2990 nM and the GI50 (COLO 205 colon) was 511 nM. The TGI (COLO 205 colon) was 1840 nM, the GI50 (MDA-MB-231 breast) was 963 nM and the TGI (MDA-MB-231 breast) was 2440 nM. The GI50 (DU-145 prostate) was 910 nM, the TGI (DU-145 prostate) was 2180 nM and the GI50 (SNB-75 CNS) was 328 nM. The TGI (SNB-75 CNS) was 1800 nM, the GI50 (SNB-19 CNS) was 1800 nM and the TGI (SNB-19 CNS) was 4090 nM. For the same molecule, the GI50 (NCI-H23 lung) was 1440 nM, the TGI (NCI-H23 lung) was 3140 nM and the GI50 (A498 renal) was 1560 nM. It also gave a TGI (A498 renal) of 2960 nM, a GI50 (MALME-3M melanoma) of 1380 nM and a TGI (MALME-3M melanoma) of 2770 nM. The GI50 (SF-295 CNS) was 3320 nM, the TGI (SF-295 CNS) was 7680 nM and the GI50 (EKVX NSCLC) was 1460 nM. For the same molecule, the TGI (EKVX NSCLC) was 3000 nM, the GI50 (NCI-H226 lung) was 1420 nM and the TGI (NCI-H226 lung) was 3110 nM. It also gave a GI50 (HCT-116 colon) of 160 nM, a TGI (HCT-116 colon) of 368 nM and a GI50 (CAKI-1 renal) of 505 nM. For the same molecule, the TGI (CAKI-1 renal) was 1860 nM, the GI50 (HCC-2998 colon) was 1570 nM and the TGI (HCC-2998 colon) was 3100 nM. The GI50 (HCT-15 colon) was 314 nM, the TGI (HCT-15 colon) was 1030 nM and the GI50 (K-562 leukemia) was 398 nM. The TGI (K-562 leukemia) was > 40000 nM, the GI50 (OVCAR-8 ovarian) was 829 nM and the TGI (OVCAR-8 ovarian) was 2820 nM. It also gave a GI50 (A549 NSCLC) of 1420 nM, a TGI (A549 NSCLC) of 3620 nM and a GI50 (SF-539 CNS) of 962 nM. The TGI (SF-539 CNS) was 2170 nM, the GI50 (PC-3 prostate) was 965 nM and the TGI (PC-3 prostate) was 2680 nM. It also gave a GI50 (NCI-H460 lung) of 1530 nM, a TGI (NCI-H460 lung) of 3330 nM and a GI50 (M14 melanoma) of 763 nM. The TGI (M14 melanoma) was 2150 nM, the GI50 (SK-MEL-2 melanoma) was 1480 nM and the TGI (SK-MEL-2 melanoma) was 3200 nM. It also gave a GI50 (SK-MEL-28 melanoma) of 1240 nM, a TGI (SK-MEL-28 melanoma) of 2510 nM and a GI50 (CCRF-CEM leukemia) of 293 nM. It also gave a TGI (CCRF-CEM leukemia) of 2030 nM, a GI50 (T-47D breast) of 1910 nM and a TGI (T-47D breast) of 5290 nM. It also gave a GI50 (UO-31 renal) of 406 nM, a TGI (UO-31 renal) of 1190 nM and a GI50 (786-0 renal) of 851 nM. The TGI (786-0 renal) was 2220 nM, the GI50 (IGROV1 ovarian) was 660 nM and the TGI (IGROV1 ovarian) was 1910 nM. The GI50 (UACC-257 melanoma) was 1360 nM, the TGI (UACC-257 melanoma) was 3380 nM and the GI50 (OVCAR-5 ovarian) was 1240 nM. For the same molecule, the TGI (OVCAR-5 ovarian) was 2680 nM, the GI50 (RPMI-8226 leukemia) was 357 nM and the TGI (RPMI-8226 leukemia) was 1940 nM. For the same molecule, the GI50 (U251 CNS) was 1400 nM, the TGI (U251 CNS) was 2910 nM and the GI50 (SF-268 CNS) was 1440 nM. The TGI (SF-268 CNS) was 2910 nM, the GI50 (NCI-H522 lung) was 552 nM and the TGI (NCI-H522 lung) was 2190 nM. For the same molecule, the GI50 (OVCAR-3 ovarian) was 281 nM and the TGI (OVCAR-3 ovarian) was 921 nM.
